According to PubChem BioAssay (NCI):
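Test compounds were applied to cells in 96-well plates for 48 hours at 5 doses. TGI is the concentration that stops growth completely.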

What was measured:
Test in all cases: NCI tumour cell line growth inhibition, 48 h
HCT-116 colon = tested on: HCT-116 colon
SW-620 colon = tested on: SW-620 colon
P388 leukemia = tested on: P388 leukemia
SN12C renal = tested on: SN12C renal
CCRF-CEM leukemia = tested on: CCRF-CEM leukemia
SK-OV-3 ovarian = tested on: SK-OV-3 ovarian
EKVX NSCLC = tested on: EKVX NSCLC
COLO 205 colon = tested on: COLO 205 colon
DLD-1 colon = tested on: DLD-1 colon
OVCAR-4 ovarian = tested on: OVCAR-4 ovarian
SNB-78 CNS = tested on: SNB-78 CNS
SK-MEL-2 melanoma = tested on: SK-MEL-2 melanoma
SF-295 CNS = tested on: SF-295 CNS
NCI-H226 lung = tested on: NCI-H226 lung
KM12 colon = tested on: KM12 colon
SF-268 CNS = tested on: SF-268 CNS
SF-539 CNS = tested on: SF-539 CNS
UACC-257 melanoma = tested on: UACC-257 melanoma
NCI-H460 lung = tested on: NCI-H460 lung
K-562 leukemia = tested on: K-562 leukemia
MOLT-4 leukemia = tested on: MOLT-4 leukemia
OVCAR-8 ovarian = tested on: OVCAR-8 ovarian
HOP-62 NSCLC = tested on: HOP-62 NSCLC
M19-MEL melanoma = tested on: M19-MEL melanoma
LOX IMVI melanoma = tested on: LOX IMVI melanoma
UACC-62 melanoma = tested on: UACC-62 melanoma
HL-60(TB) leukemia = tested on: HL-60(TB) leukemia
IGROV1 ovarian = tested on: IGROV1 ovarian
U251 CNS = tested on: U251 CNS
P388/ADR leukemia = tested on: P388/ADR leukemia
SNB-19 CNS = tested on: SNB-19 CNS
HCC-2998 colon = tested on: HCC-2998 colon
MALME-3M melanoma = tested on: MALME-3M melanoma
RXF 393 renal = tested on: RXF 393 renal
NCI-H23 lung = tested on: NCI-H23 lung
HT29 colon = tested on: HT29 colon
NCI/ADR-RES ovarian = tested on: NCI/ADR-RES ovarian
A498 renal = tested on: A498 renal
SN12K1 renal = tested on: SN12K1 renal
DMS 114 small cell lung = tested on: DMS 114 small cell lung
HOP-18 NSCLC = tested on: HOP-18 NSCLC
OVCAR-3 ovarian = tested on: OVCAR-3 ovarian
NCI-H522 lung = tested on: NCI-H522 lung
DMS 273 small cell lung = tested on: DMS 273 small cell lung
UO-31 renal = tested on: UO-31 renal
SK-MEL-5 melanoma = tested on: SK-MEL-5 melanoma
OVCAR-5 ovarian = tested on: OVCAR-5 ovarian
SNB-75 CNS = tested on: SNB-75 CNS
MCF7 breast = tested on: MCF7 breast
HOP-92 NSCLC = tested on: HOP-92 NSCLC
A549 NSCLC = tested on: A549 NSCLC
HCT-15 colon = tested on: HCT-15 colon
SK-MEL-28 melanoma = tested on: SK-MEL-28 melanoma
KM20L2 colon = tested on: KM20L2 colon

Measured: TGI

CC1=C2C3OC(=O)C(C)C3CCC2(C)C=CC1=Nc1ccccc1 (centres undefined)
> 100 µM: all assays above
